Measured values reported in patent US20030207813A1, “Retroviral protease inhibitor combinations” (priority 1995, published 2003).
≈ marks a conversion by molar mass, not a printed value.

How the values were obtained:
[1] = test system: RFRR (resistant strains selected from RF against Examples 1 and 2); assay: CEM-T4 cell infection assay, reverse transcriptase readout, resistant isolate RFRR; format: cell-based, HIV-1; conditions: Human immunodeficiency virus 1, 168 h, Table 6, CEM-T4 cells, 7 days, read-out: Virus Isolate (EC50 ng/mL) RFRR
Source text: (§1) RF represents the HIV-1 strain HIV-LRF and RFR represents a mixture of resistant strains obtained by selection of RF against the compound of Example 1. RFR comprises a mixture of viral strains having protease genotypes of G48V (14/40 clones); G48V, V82A (18/40 clones); G48V, L90S (2/40 clones); G48V, 154T, V82A (1/40 clones); G48M (1/40 clones); G48V, Q61H (1/40 clones); V13I, G48V (1/40 clones); G48V, F53L, V82A (1/40 clones); and G48V, V82A, C95Y (1/40 clones). RFR2 represents a mixture of resistant strains obtained by cloning RFR by three rounds of growth at limiting dilution. RFR2 comprises a mixture of viral strains having protease genotypes of G48V, V82A (13/15 clones); G17E, G48V, V82A (1/15 clones); and G48V, V82A, N37D, N88D (1/15 clones). RFRR represents a mixture of resistant strains obtained by selection of RF against the compounds of Examples 1 and 2 and then cloning by three rounds of growth at limiting dilution. RFRR comprises a mixture of viral strains having protease genotypes of G48V, 154T, L63P, V82A (7/9 clones); G48V, 154T, L63P, V82A, N88S (1/9 clones); and G48V, 154T, L63P, G73M, V82A (1/9 clones). SF162 represents the HIV-1 strain SF-162 and SF162R represents a mixture of resistant strains obtained by selection of SF162 against the compound of Example 1. SF162R comprises a mixture of viral strains having protease genotypes of M461, F53L, L63P, A71V, N88D (2/3 clones); and M46I, F53L, L63P, A71V, N88D, Q92R (1/3 clones). 89-959 represents the HIV-1 strain 89-959 and 89-959R represents a mixture of resistant strains obtained by selection of 89-959 against the compound of Example 2. 89-959R comprises a mixture of viral strains having protease genotypes of N88S (4/5 clones); and D25N, T26A, D30N, D37N, R41K, G73D, R87K, N88S (1/4 clones). NL4 represents the HIV-1 strain HIV-1NL4-3. NL4(G48V) represents a strain having a synthetically generated site-directed mutation in the protease from glycine to valine at amino acid position number 48. NL4(I84V) represents a strain having a synthetically generated site-directed mutation in the protease from isoleucine to valine at amino acid position number 84. NL4(R8Q,M46I) represents a strain having synthetically generated site-directed mutations in the protease from arginine to glutamine at amino acid position number 8 and methionine to isoleucine at amino acid position number 46. NL4(P22-538) represents a mixture of resistant strains obtained by selection of HIV-1NL4-3 against the compound of Example 10 after 22 passages comprising protease genotypes M46I, L63P, A71V, V82F, I84V (4/10); M46I, L63P, V82F, I84V (3/10); and M46I, A71V, V82F, I84V (3/10). NL4(P37-538) represents resistant strains obtained by selection of HIV-1NL4-3 against the compound of Example 10 after 37 passages comprising protease genotype M46I, L63P, A71V, 184A. NL4(538/524) represents resistant strains obtained by selection of NL4(P22-538) against the compound of Example 5 after 24 passages comprising protease genotype M46I, L63P, A71V, 184A. NL4(538/P7-AG) represents a mixture of resistant strains obtained by selection of NL4(P22-538) against the compound of Example 12 after 7 passages comprising protease genotypes M46I, L63P, A71V, 184A; and V321, V82I. NL4(538/P24-AG) represents resistant strains obtained by selection of NL4(P22-538) against the compound of Example 12 after 24 passages comprising protease genotype M46I, L63P, A71V, 184A. NLA(P19-003) represents resistant strains obtained by selection of HIV-1^NL4-3 against the compound of Example 9 after 19 passages comprising protease genotype R8K, M46I. NL4(P34-003) represents resistant strains obtained by selection of HIV-1^NL4-3 against the compound of Example 9 after 34 passages comprising protease genotype R8K, M46I, L63P, A71V, L90M.
(§2) The viral isolate resistance results summarized in Tables 4-6 were generated according to the following assay procedure or minor modifications thereof. Assays are performed in 96-well tissue culture plates. […]

[2] = test system: RFR2 (RFR cloned by three rounds of limiting dilution); assay: CEM-T4 cell infection assay, reverse transcriptase readout, resistant isolate RFR2; format: cell-based, HIV-1; conditions: Human immunodeficiency virus 1, 168 h, Table 6, CEM-T4 cells, 7 days, read-out: Virus Isolate (EC50 ng/mL) RFR2
Source text: as §1, §2

SMILES | EC50 [1] [ng/mL] | EC50 [2] [ng/mL]
CNCC(=O)N[C@H](C(=O)N[C@@H](Cc1ccccc1)[C@H](O)CN(CCC(C)C)C(=O)NC(C)(C)C)C(C)(C)C [Example 2, (2R,3S)-3-(N-methylaminoacetyl-L-tert-butylglycinyl)amino-1-(N-isoamyl-N-(tert-butylcarbamoyl))amino-4-phenyl-2-butanol] | 1110 (≈ 2.08 µM) | 367 (≈ 0.688 µM)
CC(C)(C)NC(=O)[C@@H]1CN(Cc2cccnc2)CCN1C[C@@H](O)C[C@@H](Cc1ccccc1)C(=O)N[C@H]1c2ccccc2C[C@H]1O [Example 5, N-(2(R)-Hydroxy-1(S)-indanyl)-2(R)-phenylmethyl-4(S)-hydroxy-5-(1-(4-(3-pyridylmethyl)-2(S)-N′-(t-butylcarboxamido)-piperazinyl))-pentaneamide] | 982 (≈ 1.6 µM) | 57 (≈ 0.0929 µM)
CC(C)(C)NC(=O)[C@@H]1CC2CCCC[C@@H]2CN1C[C@@H](O)[C@H](Cc1ccccc1)NC(=O)[C@H](CC(N)=O)NC(=O)c1ccc2ccccc2n1 (stereo in doubt) [Example 6, N-tert-Butyl decahydro-2-[2(R)-hydroxy-4-phenyl-3(S)-[[N-(2-quinolylcarbonyl)-L-asparaginyl]amino]butyl]-(4aR,8aS)-isoquinoline-3(S)-carboxamide] | 962 (≈ 1.43 µM) | 31 (≈ 0.0462 µM)
CC(C)CN(C[C@@H](O)[C@H](Cc1ccccc1)NC(=O)[C@H](CC(N)=O)NC(=O)c1ccc2ccccc2n1)C(=O)NC(C)(C)C (relative stereo) [Example 1, [1S-[1R*(R*),2S*]]-N^1-[3-[[[(1,1-dimethylethyl)amino]carbonyl])2-methylpropyl)amino]-2-hydroxy-1-(phenylmethyl)propyl]-2-[(2-quinolinylcarbonyl)amino]-butanediamide] | 5610 (≈ 9.27 µM) | 880 (≈ 1.46 µM)
